Source: patent publication US10952952B2, “Skin lightening composition” (Conopco, Inc., priority 2015, dated 2021)

How the values were obtained:
Assay type in all cases: cell-based
[1] = system: Human primary melanocytes; assay: Melanin Content Assay (MCA); settings: for inhibition at 5000 µM / inhibition at 10000 µM: Homo sapiens, Melanocyte, 72 hours, vs untreated cells, read-out: % Inhibition in Melanin Synthesis (Mean ± SD); for inhibition at 5000 µM: 5 mM; for inhibition at 10000 µM: 10 mM
Procedure: Human primary melanocytes were grown in melanocytes growth medium (MGM) with human melanocyte growth supplement. 500 μL/well (5×10^4 cells/well) of this solution was plated in a 24 wells plate and incubated in an incubator (Thermo Scientific, Model 3111) at 37° C. with 5% CO2 atmosphere. After 24 hours of incubation, cell cultures were treated with the lead actives dissolved in water. The control was cells treated with the vehicle (water) alone. The cells were again incubated for 72 hours in an incubator (Thermo Scientific, Model 3111; conditions: 5% CO2, at 37° C.). At the end of the incubation the culture medium was replaced with 120μl/well of MCA reagent ([…] DMSO in 1N NaOH) and incubated for 1 hour at 60° C. in a shaker incubator. The supernatant was then transferred to a 384 well plate. The absorbance was measured spectrophotometric at 405 nm with a micro plate reader (GEnios Pro, Tecan). The spectrophotometric OD at 405 nm for untreated cells (NO active) was considered as 100% melanin content. In comparison to the untreated cells, the percentage inhibition of the treated cell samples were calculated.

[2] = system: human primary melanocytes and HaCat keratinocytes; assay: Melanosome Transfer Assay (MTA), Example 3; settings: 72 hours co-culture; for % Inhibition in melanosome transfer: 15 mM; for inhibition at 5000 µM / inhibition at 10000 µM: Homo sapiens, HaCaT; for inhibition at 5000 µM: 5 mM; for inhibition at 10000 µM: 10 mM
Procedure: 1.3×10^4 cells of human primary melanocytes (C-202-5C, Lonza) prepared in culture medium (MGM:KGM=1:1) and 2.6×10^4 HaCat keratinocytes prepared in culture medium (MGM:KGM=1:1) were mixed together and plated in a 48 well plate and incubated in an tissue culture tissue culture incubator (Thermo Scientific, Model 3111) at 37° C. with 5% CO2 atmosphere. After 4 hours of incubation, co-cultures were treated with the samples and again incubated for 72 hours in the same incubator under the same conditions. After culturing for required period (72 hours), the cells were prepared for flow cytometry analysis by following the procedure as set out below: • 1. Cells were isolated from 48 wells plate into a V-bottom plate (Torson, 941396) with 200 μl of trypsin EDTA buffer and the trypsin activity was neutralized with 200 μl of trypsin neutralizer and pelleted down to 350 g using a cold centrifuge (Plasto Crafts, Model no: Roat 4R-V/FM). • 2. To the pellet, 100 μl of 1% para-formaldehyde was added and incubated for 10 minutes on ice. • 3. Cells were then centrifuged (1000 G) with 100 μl of phosphate buffer saline (PBS) for 10 minutes and the pellet was used for staining with a solution as stated in below step 4. The PBS was prepared by adding 4 g sodium chloride, 0.1 g potassium chloride, 0.58 g disodium hydrogen phosphate and 0.1 g potassium dihydrogen phosphate into 500 ml of autoclaved Mili-Q water.
(§1) FACS buffer (Florescence activated cell sorter) was prepared by adding 0.1% Saponin and >0.05% (0.05% wt/volume) Fetal Bovine serum in PBS mixed with Alexa 488 conjugated goat anti-Trp1 antibody (TRP1 Alexa 488 (TRP1, tyrosinase related protein is an specific melanosome marker protein, Santacruz, catalog No: sc-10443) (1 μL/100 μL) and anti-pan cytokeratin antibody (pan cytokeratin, cytokeratin is a specific marker for keratinocytes) PE, Santacruz, catalog No: sc-8018) (1 μL/100 μL). The above mention FACS buffer was added to the pellet in each well (100 μL/well) and incubated for 60 minutes on ice. • 4. The cells were then washed with PBS and centrifuged down to ˜1000 G using a cold centrifuge (Plasto crafts, Roat 4R-V/FM) • 5. The cell pellets were suspended in PBS and transferred to round bottom 96 wells plate and analyzed by flow cytometry (BD Biosciences, Model—BD Facs calibur with BD HTS) Calculation of Melanosome Transfer (% Transfer):
Keratinocytes containing transferred melanosomes were detected by flow cytometry analysis.
The % transfer in untreated cells (NO active) was considered as 100%. In comparison to the untreated cells, the percentage transfer of the treated cell samples were calculated.

[3] = system: human primary melanocytes and HaCat keratinocytes; assay: Melanosome Transfer Assay (MTA), Example 2; settings: 5 mM, 72 hours co-culture, read-out: % inhibition in keratinocytes containing melanosome (Mean ± SD)
Procedure: 1.3×10^4 cells of human primary melanocytes (C-202-5C, Lonza) prepared in culture medium (MGM:KGM=1:1) and 2.6×10^4 HaCat keratinocytes prepared in culture medium (MGM:KGM=1:1) were mixed together and plated in a 48 well plate and incubated in an tissue culture incubator (Thermo Scientific, Model 3111) at 37° C. with 5% CO2 atmosphere. After 4 hours of incubation, co-cultures were treated (added) with the samples and again incubated for 72 hours in the same incubator under the same conditions. After culturing for required period (72 hours), the cells were prepared for flow cytometry analysis by following the procedure as set out below: • 1. […]
as §1, with “FACS” for “FACS buffer”, “The above mention FACS buffer was added to the pellet in each well (100 μL/well) and incubated for 60 minutes on ice. • 4. The cells were then washed with PBS and centrifuged down to ˜1000 G using a cold centrifuge (Plasto crafts, Roat 4R-V/FM) • 5.” left out, “analysed” for “analyzed”, “Facscalibur” for “Facs calibur”, “Transfer): […]” for “Transfer):”

## NC(=O)c1ccccn1 [Picolinamide, pyridine 2-carboxamide]
[1]
  inhibition at 5000 µM: 14 ± 0.9%
  inhibition at 10000 µM: 23 ± 3.3%
[2]
  % Inhibition in melanosome transfer: cell death
  inhibition at 5000 µM: -8%
  inhibition at 10000 µM: 18%

## NC(=O)c1cccnc1 [Niacinamide, pyridine-3-carboxamide]
[1]
  inhibition at 5000 µM: 3 ± 0.4%
  inhibition at 10000 µM: 8 ± 2.3%
[1]; niacinamide by itself, at 5 mM and 10 mM
  reduction of melanin content in primary human melanocytes: modest reduction
[3]
  inhibition at 5000 µM: 15.1 ± 0.4%
[2]
  % Inhibition in melanosome transfer: cell death
  inhibition at 5000 µM: 16.5%
  inhibition at 10000 µM: 25%
